Test [1] has as its target T1, FP receptor (Rattus norvegicus, UniProt P43118).
T1 construct: Two cell lines containing the FP receptor have been extensively characterized by this method; host or cells: A7r5 rat thoracic aorta smooth muscle cells
As to the kind of experiment: Agonist stimulation of [3H]IPs production in A7r5 cells. The format is cell-based. The procedure: (§1) Confluent monolayer cultures of cells (in a standard 24-well tissue culture plate) expressing the FP receptor are exposed to [^3H]-myo-inositol (1.5 μCi in a volume of 0.5 ml DMEM culture medium supplemented with 2 mM L-glutamine and 10 μg/ml gentamicin sulfate) in the absence of serum, which causes net incorporation of the radioisotope into the phosphotidylinositol membrane lipids. After 24-32 hrs, the medium with the radioisotope is removed and the cells are rinsed once with DMEM/F-12 medium containing 10 mM LiCl (assay medium). Then 0.5 ml of assay medium is added to each well of cells, followed by addition of varying concentrations of an FP receptor agonist (or other test compound). Cells are exposed to the test agent for 30-120 min in a humidified incubator (95% air/5% CO2), maintained at 37° C. Then the assay medium is removed and 1 ml of 0.1 M formic acid is added to the cell monolayer to inactivate the phospholipase C release the radiolabelled products into the assay medium. The presence of LiCl during the agonist stimulation period inhibits phosphatases and permits the accumulation of radiolabelled inositol phosphates (IPs) which is measured by ion exchange chromatography.
The agonist-dependent production of IPs, which reflects the degree of receptor activation, is quantitatively measured for each well of cells in the 24-well plate by separating the negatively charged radiolabelled IPs from other minor radiolabelled species and free [^3H]-myo-inositol by anion exchange chromatography. […] These samples, i.e., the radiolabelled IPs formed by the cells in response to stimulation by an FP prostaglandin receptor agonist or other test agent, is then measured by scintillation spectrometry on a beta-counter.
The dependence of the level of the [^3H]IPs production on agonist concentration is analyzed by standard pharmacological methods to determine the potency (EC50 value) and efficacy (maximum response; Emax) of the FP receptor agonist relative to a standard FP receptor agonist such as fluprostenol. […]

The target in test [2] is FP prostaglandin receptor (Homo sapiens, UniProt P43088). As to the kind of experiment: Selectivity for the FP prostaglandin receptor compared to other classes of prostaglandin receptors.
FP prostaglandin receptor, sequence (P43088 whole entry): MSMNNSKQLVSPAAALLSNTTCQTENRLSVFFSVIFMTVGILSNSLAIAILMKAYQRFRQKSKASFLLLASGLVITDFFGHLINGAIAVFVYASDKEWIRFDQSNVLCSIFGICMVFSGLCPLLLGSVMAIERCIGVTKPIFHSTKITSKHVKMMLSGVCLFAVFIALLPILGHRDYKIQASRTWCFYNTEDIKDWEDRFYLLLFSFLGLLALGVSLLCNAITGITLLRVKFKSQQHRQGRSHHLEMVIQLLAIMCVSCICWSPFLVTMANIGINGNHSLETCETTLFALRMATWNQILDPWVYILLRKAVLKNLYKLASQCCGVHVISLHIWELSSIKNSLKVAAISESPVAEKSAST
A further test addresses T2, human ocular FP receptor (Homo sapiens, UniProt P43088).
T2 construct: expressed in transfected cells; host or cells: HEK-293 (human embryonic kidney)
As to the kind of experiment: Antagonism of fluprostenol-induced [3H]IPs production in HEK-293 cells expressing recombinant human ocular FP receptor. The class given is cell-based. The procedure:
as §1, with “Then the assay medium is removed and 1 ml of 0.1 M formic acid is added to the cell monolayer to inactivate the phospholipase C release the radiolabelled products into the assay medium.” left out
The agonist-dependent production of IPs, which reflects the degree of receptor activation, is quantitatively measured for each well of cells in the 24-well plate by separating the negatively charged radiolabelled IPs from other minor radiolabelled species and free [^3H]-myo-inositol by anion exchange chromatography. […]

The target in test [3] is T1, FP receptor. In words: Antagonism of fluprostenol-stimulated [3H]IPs production in A7r5 cells. The class given is cell-based. The procedure: as §1
The agonist-dependent production of IPs, which reflects the degree of receptor activation, is quantitatively measured for each well of cells in the 24-well plate by separating the negatively charged radiolabelled IPs from other minor radiolabelled species and free [^3H]-myo-inositol by anion exchange chromatography. This is accomplished by adding 0.9 ml of the cell lysate obtained as described above to a column packed with 1 ml of AG 1-X8 anion exchange resin in the formate form. The elution and separation of the radiolabelled IPs from the column consists of sequential additions to the column of: 1) 10 ml of water; 2) 8 ml of 50 mM ammonium formate; and 3) 4 ml of 1.2 M ammonium formate solution containing 0.1 M formic acid. The first two washes are discarded, and the third is collected in a scintillation vial, to which is added 15 ml of a water-accepting scintillation fluid. These samples, i.e., the radiolabelled IPs formed by the cells in response to stimulation by an FP prostaglandin receptor agonist or other test agent, is then measured by scintillation spectrometry on a beta-counter.
The dependence of the level of the [^3H]IPs production on agonist concentration is analyzed by standard pharmacological methods to determine the potency (EC50 value) and efficacy (maximum response; Emax) of the FP receptor agonist relative to a standard FP receptor agonist such as fluprostenol. […] The agonist stimulation is then continued for the standard time (30-120 min), after which the procedure for quenching the reaction, separating the [^3H]IPs, and anion exchange chromatography is identical to the procedure described above. A compound is considered to be an antagonist in this protocol if it inhibits the agonist-stimulated [^3H]IPs production relative to the production measured in the control experiment (performed in parallel), in which the solvent is substituted for the antagonist.
Two different antagonist protocols are employed: 1) the antagonist concentration is varied while holding the agonist concentration fixed at a concentration approximately 10 times the agonist EC50 value and 2) the antagonist concentration is fixed in a given experiment, with the agonist concentration varied, and several such experiments, each with a different, fixed antagonist concentration, are performed. […] Overall, the Ki and Kb values are synonymous and represent the antagonist potency of the antagonist at equilibrium.

Molecules are shown by their SMILES. Where two headings read alike, the source gives them in different places.

T1 sequence (P43118 whole entry): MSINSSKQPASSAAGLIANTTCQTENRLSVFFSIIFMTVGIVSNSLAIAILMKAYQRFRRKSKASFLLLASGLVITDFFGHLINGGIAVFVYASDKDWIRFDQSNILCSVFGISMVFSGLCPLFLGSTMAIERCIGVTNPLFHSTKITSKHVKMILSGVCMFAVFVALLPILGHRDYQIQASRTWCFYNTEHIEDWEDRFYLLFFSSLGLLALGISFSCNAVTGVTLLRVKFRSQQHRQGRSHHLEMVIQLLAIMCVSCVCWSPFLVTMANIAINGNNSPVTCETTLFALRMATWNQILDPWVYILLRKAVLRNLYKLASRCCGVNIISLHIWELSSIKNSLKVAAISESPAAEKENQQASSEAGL
T2 sequence (P43088 whole entry): as the sequence (P43088 whole entry) above

Turning to `O=C(O)CCC/C=C\C[C@@H]1[C@@H](/C=C/[C@@H](O)COc2cccc(C(F)(F)F)c2)[C@H](O)C[C@@H]1O` (racemic) [fluprostenol], on FP receptor [1], the “Agonist classification (maximum effect relative to full agonists)” value was “full agonist”.

For `O=C(O)CCC/C=C\C[C@@H]1[C@@H](/C=C/[C@H](O)C2Cc3ccccc3C2)[C@@H](F)C[C@@H]1O` [Compound III, (5Z,13E)-(9S,11S,15R)-9,15-Dihydroxy-11-fluoro-15-(2-indanyl)-16,17,18,19,20-pentanor-5,13-prostadienoic acid], the “Agonist classification (maximum effect relative to full agonists)” value on FP receptor [1] is on record as “partial agonist”. Also, the “Selectivity for FP prostaglandin receptor versus other prostaglandin receptor classes” value in test [2] was “relatively good selectivity”. The “Antagonism of fluprostenol-induced [3H]IPs production” value at human ocular FP receptor is “behaved as an antagonist”. For the same molecule, the Kb at FP receptor [3] (Schild analysis, read-out: Kb, mol/L (potency as antagonist of the FP receptor)) was found to be 250 nM; on FP receptor [3] (fluprostenol agonist varied, fixed antagonist concentrations, n=4 experiments, read-out: Kb (Schild analysis)), 285 ± 97 nM. Also, the Ki at FP receptor [3] (fixed fluprostenol concentration about 10 times the agonist EC50, read-out: Ki (method of FIG. 2, antagonist concentration varied)) came out at 426 ± 63 nM. The “Fold higher potency as FP receptor antagonist than phloretin” value on FP receptor [3] (from Table 1) is given as over 10 fold. At FP receptor [3] (shift of fluprostenol dose-response curves, maximal effect unaltered), the Type of antagonism result is reported as “competitive antagonist”.

`CCCCC[C@H](O)/C=C/[C@@H]1[C@@H](C/C=C\CCCC(=O)N(C)C)[C@@H](O)C[C@H]1O` [PGF2α dimethyl amide, reference compound]: the “Kb, mol/L (potency as antagonist of the FP receptor)” value (from here on “Kb, mol/L”) at FP receptor [3] (Schild analysis) was “Inactive”.

Regarding `CCCCC[C@H](O)/C=C/[C@@H]1[C@@H](C/C=C\CCCCN(C)C)[C@@H](O)C[C@H]1O` [PGF2α dimethyl amine, reference compound], on FP receptor [3] (Schild analysis), the “Kb, mol/L” value was “Inactive”.

Turning to `CCCCNC(=O)NS(=O)(=O)c1ccc(C)cc1` [Tolbutamide, reference compound], the “Kb, mol/L” value on FP receptor [3] (Schild analysis) is listed as “Inactive”.

In the case of `O=C(O)CCC/C=C\CC1C(O)CC(O)C1/C=C/C(O)COc1cccc(Cl)c1` (stereo not shown) [cloprostenol], the “Agonist classification (maximum effect relative to full agonists)” value at FP receptor [1] was “full agonist”.

(Values after US20030083375A1, “11Beta-fluoro 15beta-hydroxy PGF2alpha analogs as FP receptor antagonists” (priority 1997, published 2003).)
